Data as given in ChEMBL document CHEMBL1201862, “PubChem BioAssay data set” (2004).
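A five-concentration, 48-hour dose response in 96-well plates underlies each endpoint, interpolated linearly between surrounding concentrations. Here, GI50 denotes the concentration required for 50% inhibition of growth.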 Activity calls are given as the source filed them. Rule as the data show it: active = GI50 up to about 1.1 µM and inactive = higher.

Tests used:
Test in all cases: NCI anticancer screen, dose series, 48 h
[1] = system: UO-31
[2] = system: CCRF-CEM
[3] = system: SK-MEL-2
[4] = system: NCI-H522
[5] = system: SN12C
[6] = system: SF-268
[7] = system: SF-295
[8] = system: SK-MEL-5
[9] = system: HCC 2998
[10] = system: IGROV-1
[11] = system: UACC-62
[12] = system: K562
[13] = system: A549
[14] = system: OVCAR-4
[15] = system: HOP-62
[16] = system: UACC-257
[17] = system: MOLT-4
[18] = system: COLO 205
[19] = system: HL-60

Measured: GI50

N=C(N)NS(=O)(=O)c1ccc(NC(=O)c2cccc3c(Nc4ccc(S(=O)(=O)N=C(N)N)cc4)c4ccc(Cl)cc4nc23)cc1
inactive: [1] 50.8 µM | [2] 55 µM | [3] > 100 µM | [4] 30.4 µM | [5] 75.5 µM | [6] 48.4 µM | [7] > 100 µM | [8] 28.6 µM | [9] 79.3 µM | [10] 74.8 µM | [11] 33.3 µM | [12] 41.3 µM | [13] 53 µM | [14] 80 µM | [15] 58.6 µM | [16] 77.6 µM | [17] 56.2 µM | [18] 47.2 µM

Cc1cc(CC(O)c2ccc(Cl)c(Cl)c2)nc(O)n1 (configuration not stated)
inactive: [1] 54.1 µM | [2] 48.8 µM | [3] 61.7 µM | [4] 20.2 µM | [5] 86.3 µM | [6] 38.5 µM | [7] 30.3 µM | [8] 57.4 µM | [19] 31 µM | [11] 50.9 µM | [12] 50.1 µM | [13] 21.8 µM | [14] 48.9 µM | [15] 25.6 µM | [16] > 100 µM | [17] > 10 µM | [18] 31 µM

COc1ccc(/C=C2\CCCCC2=O)cc1
inactive: [1] > 100 µM | [2] > 100 µM | [5] > 100 µM | [6] > 100 µM | [7] > 100 µM | [8] > 100 µM | [10] > 100 µM | [19] > 100 µM | [11] > 100 µM | [12] > 100 µM | [13] > 100 µM | [14] > 100 µM | [15] > 100 µM | [17] > 100 µM | [18] > 100 µM

COC(OC)[C@@H](C)[C@H](O)[C@](C)(O)C1OC(C)(C)OC(C(C)C=C(C)C)C1C (some centres not stated)
inactive: [1] 80.7 µM | [2] > 100 µM | [3] > 100 µM | [4] > 100 µM | [5] > 100 µM | [6] > 100 µM | [7] > 100 µM | [8] 64.9 µM | [10] > 100 µM | [19] 29.9 µM | [11] > 100 µM | [12] 77.1 µM | [13] > 100 µM | [14] > 100 µM | [15] > 100 µM | [16] 93.1 µM | [17] 72.4 µM | [18] > 100 µM

O=C(O)C#CCO
inactive: [1] > 100 µM | [2] > 100 µM | [3] > 100 µM | [4] > 100 µM | [5] > 100 µM | [6] > 100 µM | [7] > 100 µM | [8] > 100 µM | [10] > 100 µM | [19] > 100 µM | [11] > 100 µM | [12] > 100 µM | [13] > 100 µM | [14] > 100 µM | [15] > 100 µM | [16] > 100 µM | [17] > 100 µM | [18] > 100 µM

Cc1ccc(Nc2nc(-c3ccc(-c4ccc([N+](=O)[O-])cc4)o3)cs2)cc1
inactive: [1] 8.51 µM | [3] > 100 µM | [5] 73.6 µM | [6] > 100 µM | [7] 33.2 µM | [9] 23.4 µM | [10] 22.7 µM | [19] 58.7 µM | [11] 99.8 µM | [12] 14.2 µM | [13] 52.7 µM | [14] 63.1 µM | [15] > 100 µM | [16] 21.5 µM | [17] 4.54 µM | [18] 40 µM

CC(Cn1c2c3ccccc3ccc2c2oc(=O)c3ccccc3c21)N(C)C (configuration not stated)
inactive: [1] > 100 µM | [2] > 100 µM | [3] > 100 µM | [4] > 100 µM | [6] > 100 µM | [7] > 100 µM | [10] > 100 µM | [19] > 100 µM | [11] > 100 µM | [12] > 100 µM | [13] > 100 µM | [14] > 100 µM | [16] > 100 µM | [17] > 100 µM | [18] > 100 µM

COc1cccc(C2c3cc4c(cc3OC(O)(CO)C2C(=O)O)OCO4)c1.COc1cccc(C2c3cc4c(cc3OC3(O)COC(=O)C23)OCO4)c1 (configuration not stated)
inactive: [1] 64.3 µM | [2] 37.6 µM | [3] > 100 µM | [5] 55.3 µM | [6] 40.4 µM | [7] 39.9 µM | [8] 67.1 µM | [9] > 100 µM | [10] 62.7 µM | [19] 33.7 µM | [11] 33.5 µM | [12] 37.7 µM | [13] 82.2 µM | [14] 37 µM | [15] > 100 µM | [16] 41.5 µM | [17] 35.7 µM | [18] > 100 µM

Nc1ncnc2c1ncn2CCCC(c1ccccc1)P(=O)(O)O (configuration not stated)
inactive: [1] > 100 µM | [3] > 100 µM | [4] > 100 µM | [5] > 100 µM | [6] > 100 µM | [7] > 100 µM | [8] > 100 µM | [9] > 100 µM | [10] > 100 µM | [19] > 100 µM | [11] > 100 µM | [13] > 100 µM | [16] > 100 µM | [18] > 100 µM

CCOC(=O)C(=O)Nc1c(F)cc(F)cc1Br
inactive: [1] > 100 µM | [2] > 100 µM | [3] > 100 µM | [5] > 100 µM | [6] > 100 µM | [7] > 100 µM | [8] > 100 µM | [9] > 100 µM | [10] > 100 µM | [19] > 100 µM | [11] > 100 µM | [12] > 100 µM | [13] > 100 µM | [14] > 100 µM | [15] > 100 µM | [16] > 100 µM | [17] > 100 µM | [18] > 100 µM

CC1(C)CC[C@]2(C(=O)O)CCC3(C)C(=CCC4[C@@]5(C)CC[C@H](OC6OCC(O)C(O)C6OC6OC(CO)C(O)C(O)C6O)C(C)(C)C5CC[C@]43C)C2C1 (some centres not stated)
inactive: [1] 2.16 µM | [5] 1.89 µM | [6] 2.4 µM | [7] 1.79 µM | [8] 3.98 µM | [9] 1.71 µM | [10] 2.67 µM | [11] 1.83 µM | [13] 1.86 µM | [14] 1.57 µM | [15] 2.09 µM | [16] 2.94 µM | [17] 2.98 µM | [18] 1.89 µM

COc1cc2c(cc1OC)C(=O)N(c1ccc(O)cc1)C2
inactive: [2] > 100 µM | [3] > 100 µM | [4] > 100 µM | [5] > 100 µM | [6] > 100 µM | [7] > 100 µM | [8] > 100 µM | [9] > 100 µM | [10] > 100 µM | [19] > 100 µM | [11] > 100 µM | [12] > 100 µM | [13] > 100 µM | [14] > 100 µM | [15] > 100 µM | [16] > 100 µM | [17] > 100 µM | [18] > 100 µM

O=C1C(Br)=CC2(C=C1Br)CCNC1=C2C(=O)c2ccccc2C1=O
inactive: [2] 3.57 µM | [3] 14.9 µM | [4] 3.58 µM | [5] 6.68 µM | [6] 11.2 µM | [7] 16.8 µM | [8] 11.6 µM | [10] 18.5 µM | [19] 3.34 µM | [11] 8.59 µM | [12] 7.89 µM | [13] 22.8 µM | [15] 16 µM | [16] 14.1 µM | [17] 3.75 µM | [18] 4.61 µM

Oc1ccc2ccccc2c1/N=N\c1cccc2ccccc12
inactive: [1] > 100 µM | [2] 58.1 µM | [3] > 100 µM | [4] 82.6 µM | [5] > 100 µM | [6] > 100 µM | [7] > 100 µM | [8] > 100 µM | [10] 29.9 µM | [19] 52.8 µM | [11] > 100 µM | [12] > 100 µM | [13] > 100 µM | [14] > 100 µM | [15] > 100 µM | [16] > 100 µM | [17] 93.1 µM | [18] > 100 µM

C/C(CC(=O)Nc1cc(C)ccc1C)=N/N=C(N)N
inactive: [1] > 100 µM | [2] > 100 µM | [3] > 100 µM | [4] > 100 µM | [6] > 100 µM | [7] > 100 µM | [8] > 100 µM | [9] > 100 µM | [10] > 100 µM | [19] > 100 µM | [11] > 100 µM | [12] > 100 µM | [13] > 100 µM | [15] > 100 µM | [16] > 100 µM | [17] > 100 µM | [18] > 100 µM

CCOC(=O)c1c[nH]c(C(=O)OCC)c1-c1cccn1-c1ccccc1
inactive: [1] 18.4 µM | [2] 17.9 µM | [3] 14.5 µM | [4] 13 µM | [5] 27 µM | [6] 25.5 µM | [7] 19.3 µM | [8] 14.1 µM | [10] 10.7 µM | [19] 18.4 µM | [11] 17.4 µM | [12] 15.4 µM | [13] 26.6 µM | [15] 18.2 µM | [16] 26.1 µM | [17] 15.3 µM | [18] 21.3 µM
